Test results taken from article PMC11236204 (PLOS Pathogens, 2024).
“And” between values parts separate entries of the source, which are not always exact repeats. Equal entries are not always repeated. Where two headings read alike, the source gives them in different places. Peptide text beside a SMILES is read from it. * marks the point of attachment. X1 = CCCCCCCCCCCCCCCC(=O)OCC(C*)OC(=O)CCCCCCCCCCCCCCC; Palmitoyl = CCCCCCCCCCCCCCCC(=O)*

Assays:
RVFV MP-12 [1] = format: cell-based, Rift Valley fever virus; design: relative RVFV infection in neurons treated with TLR2 ligands, Rep 1 / relative RVFV infection in neurons treated with TLR2 ligands, Rep 2: unit not given here
RVFV MP-12 [2] = format: cell-based, Rift Valley fever virus; conditions: 24h
RVFV-DiD = format: cell-based, Rift Valley fever virus; conditions: 1h
RVFV MP-12 [3] = format: cell-based, Rift Valley fever virus; conditions: 10μg/mL for 4h; 15h
RVFV MP-12 [4] = format: cell-based, Rift Valley fever virus; conditions: for RVFV RNA after lipopeptide pretreatment: 10μg/mL for 4h
RVFV MP-12 [5] = format: cell-based, Rift Valley fever virus
VSV-GFP [6] = format: cell-based, vesicular stomatitis virus
[7] = test system: VSV-RVFV (recombinant VSV expressing RVFV glycoproteins Gn and Gc); format: cell-based, vesicular stomatitis virus / RVFV ZH501 glycoproteins
[8] = test system: VSV-RVFV (recombinant VSV expressing RVFV glycoproteins Gn and Gc); format: cell-based, vesicular stomatitis virus / RVFV ZH501 glycoproteins; conditions: 14h
RVFV MP-12 [9] = format: cell-based, Rift Valley fever virus; remark: listed apart in the source
RVFV MP-12 [10] = format: cell-based, Rift Valley fever virus; conditions: 10μg/mL
RVFV MP-12 [11] = format: cell-based, Rift Valley fever virus; conditions: 10μg/mL; remark: listed apart in the source
RVFV MP-12 [12] = format: cell-based, Rift Valley fever virus; remark: listed apart in the source
RVFV MP-12 [13] = format: cell-based, Rift Valley fever virus; remark: listed apart in the source
RVFV ZH501 [14] = test system: RVFV ZH501; design: species or system mouse (C57BL/6); conditions: mouse, in vivo
RVFV ZH501 [15] = test system: RVFV ZH501; design: species or system mouse (C57BL/6); conditions: mouse, in vivo; remark: listed apart in the source
RVFV ZH501 [16] = test system: RVFV ZH501; design: species or system mouse (C57BL/6); conditions: mouse, in vivo; remark: listed apart in the source
RVFV ZH501 [17] = test system: RVFV ZH501; design: species or system mouse (C57BL/6); conditions: mouse, in vivo; remark: listed apart in the source
RVFV MP-12 [18] = test system: RVFV MP-12
VSV-GFP [19] = conditions: 2 h
RVFV ZH501 [20] = conditions: mouse, in vivo
[21] = test system: Ifit2, Cxcl10, Tnfa, Cxcl1 RNA; format: cell-based, rat
La Crosse virus (LACV) = format: cell-based

Molecule: 2'3'-c-di-AMP
- Rep 1 rel infection (RVFV MP-12 [1]): 1.031 and 1.083
- Rep 2 rel infection (RVFV MP-12 [1]): 1.123 and 1.1792

Molecule: CO/C1=C\C(C)=C\[C@@H](C)[C@@H](O)[C@@H](C)C/C(C)=C/C=C/[C@H](OC)[C@@H]([C@@H](C)[C@@H](O)[C@H](C)[C@@]2(O)C[C@@H](O)[C@H](C)[C@@H](C(C)C)O2)OC1=O [BafA, bafilomycin A1]
- RVFV infection after pulse at pH 7.6 (RVFV MP-12 [2]): blocked infection
- RVFV infection in acid-washed cells (pH 5.2) (RVFV MP-12 [2]): did not block infection
- number, intensity, and area of DiD puncta (RVFV-DiD): decreased

Molecule: CCNCc1nc2c(N)nc3ccccc3c2n1CC(C)(C)O [Gardiquimod]
- neurotoxicity in screen (relative survival of neurons) (rat cortical neurons): neurotoxic

Molecule: CC(C)Cn1cnc2c(N)nc3ccccc3c21 [Imiquimod]
- neurotoxicity in screen (relative survival of neurons) (rat cortical neurons): neurotoxic

Molecule: CCCCCCCCCCCCCCCC(=O)N[C@@H](CSCC(COC(=O)CCCCCCCCCCCCCCC)OC(=O)CCCCCCCCCCCCCCC)C(=O)N[C@@H](CO)C(=O)N[C@@H](CCCCN)C(=O)N[C@@H](CCCCN)C(=O)N[C@@H](CCCCN)C(=O)N[C@@H](CCCCN)C(=O)O (some centres unmarked) [Pam3CSK4] (Palmitoyl-C(X1)SKKKK-OH)
- RVFV titers (RVFV MP-12 [3]): 3.7 x 10^4 PFU / mL and 3.2 x 10^4 PFU / mL
- RVFV RNA after lipopeptide pretreatment (RVFV MP-12 [4]): decreased RVFV RNA
- RVFV RNA levels in the presence of TPCA-1 or IKK 16 (RVFV MP-12 [4]; 10μg/mL, 24h): significantly decreased
- infection relative to vehicle in screen (RVFV MP-12 [1]): below 60 % of vehicle
- relative RVFV infection in neurons treated with TLR2 ligands, Rep 1 (RVFV MP-12 [1]): 26.2716
- relative RVFV infection in neurons treated with TLR2 ligands, Rep 2 (RVFV MP-12 [1]): 51.9474
- Rep 1 rel infection (RVFV MP-12 [5]): 1.242 and 0.7928
- Rep 2 rel infection (RVFV MP-12 [5]): 1.2338 and 0.6802
- VSV RNA replication (VSV-GFP [6]): unchanged
- VSV-RVFV replication [7]: decreased VSV-RVFV replication
- VSV-RVFV replication [8]: decreased VSV-RVFV replication
- Neutralization (relative RVFV infection) (RVFV MP-12 [9]): 1.27 and 1.194 and 1.159 and 1.08
- RVFV infection, neutralization condition (RVFV MP-12 [9]; 24 hours): failed to neutralize RVFV
- viral RNA bound to cells (RVFV MP-12 [10]): did not change
- viral RNA bound to cells (RVFV MP-12 [11]): did not change
- internalized RVFV RNA (RVFV MP-12 [12]): no difference
- internalized RVFV RNA (RVFV MP-12 [13]): no difference
- RVFV infection in DMSO treated cells (RVFV MP-12 [2]; 10μg/mL): inhibited RVFV infection
- RVFV infection in acid-washed, BafA-treated cells (RVFV MP-12 [2]; 10μg/mL, pH 5.2): decreased RVFV infection
- number, intensity, and area of DiD puncta (RVFV-DiD): decreased
- decrease of viral replication in the brain (RVFV ZH501 [14]): more than 5 logs
- Neurologic disease at 3dpi? No (number of mice) (RVFV ZH501 [15]): 2 and 3
- Neurologic disease at 3dpi? Yes (number of mice) (RVFV ZH501 [15]): 0
- mice with signs of severe (neurologic) disease (RVFV ZH501 [15]): zero out of three and 0/3
- RVFV titers in the liver (RVFV ZH501 [16]): significantly decreased
- RVFV nucleoprotein immunofluorescence in brain and liver (RVFV ZH501 [17]): decreased viral replication in the brain and liver
- hemorrhages caused by RVFV in the liver (H & E) (RVFV ZH501 [17]): reduced hemorrhages
- Mouse cortical neurons Rel. infection (RVFV MP-12 [18]; 0.016 ug/mL): 0.9744 and 0.948 and 1.028
- Mouse cortical neurons Rel. infection (RVFV MP-12 [18]; 0.08 ug/mL): 1.018 and 0.9269 and 0.9842
- Mouse cortical neurons Rel. infection (RVFV MP-12 [18]; 0.4 ug/mL): 1.0033 and 0.9456 and 0.9907
- Mouse cortical neurons Rel. infection (RVFV MP-12 [18]; 2 ug/mL): 1.058 and 0.9085 and 1.0272
- Mouse cortical neurons Rel. infection (RVFV MP-12 [18]; 10 ug/mL): 0.3619 and 0.3566 and 0.3035
- IC50 against VSV (VSV-GFP [19]): > 10 µg/mL
- survival of mice treated with Pam3CSK4 alone (RVFV ZH501 [20]): all mice treated with Pam3CSK4 alone survived

Molecule: NC(=O)Nc1sc(-c2ccc(F)cc2)cc1C(N)=O [TPCA-1, 2-[(aminocarbonyl)amino]-5-(4-fluorophenyl)-3-thiophenecarboxamide]
- transcription of NF-κB target genes Tnfa and Cxcl1 after Pam3CSK4 stimulation [21]: blunted transcription

Molecule: FSL-1
- relative RVFV infection in neurons treated with TLR2 ligands, Rep 1 (RVFV MP-12 [1]): 105.077
- relative RVFV infection in neurons treated with TLR2 ligands, Rep 2 (RVFV MP-12 [1]): 120.652

Molecule: IKK 16
- transcription of NF-κB target genes Tnfa and Cxcl1 after Pam3CSK4 stimulation [21]: blunted transcription

Molecule: Pam2CSK4
- Rel. Fold change RVFV RNA (RVFV MP-12 [4]): 0.741 and 1.189
- RVFV RNA after lipopeptide pretreatment (RVFV MP-12 [4]): no antiviral effect
- Rel. Fold change Cxcl1 RNA [21]: 1030.97 and 740.202
- Rel. Fold change Tnfa RNA [21]: 157.572 and 100.256
- inflammatory gene transcription (Tnfa, Cxcl1, Cxcl10) ([21]; 10μg/mL for 4h): induced inflammatory gene transcription
- RVFV infection in neurons in screen (RVFV MP-12 [1]): did not decrease RVFV infection
- Rep 1 rel infection (RVFV MP-12 [1]): 1.076 and 1.061
- relative RVFV infection in neurons treated with TLR2 ligands, Rep 1 (RVFV MP-12 [1]): 106.055
- relative RVFV infection in neurons treated with TLR2 ligands, Rep 2 (RVFV MP-12 [1]): 122.343
- Rel. LACV RNA (La Crosse virus (LACV)): 0.9766 and 0.5238 and 0.6648 and 0.9475
- antiviral effect on LACV (qPCR and microscopy) (La Crosse virus (LACV)): no antiviral effect
- VSV RNA replication (VSV-GFP [6]): no antiviral effect
- Rel. VSV-RVFV RNA [7]: 0.4225 and 0.2236 and 0.215
- VSV-RVFV replication [7]: also reduced VSV-RVFV infection, although it was significantly weaker than Pam3CSK4
